Assay: Inhibition of PDK1 (unknown origin)

## Nc1ncnc2c1c(-c1cccc(OCc3ccccc3)c1)cn2[C@H]1C[C@@H](CN2CCC2)C1
  IC50: 4.8 µM
